Source: the supplement of paper PMC3621838
± gives the standard deviation of the averaged measurements.

Test system: HEK293 NF-kB-luciferase reporter cells
Assay: NF-kB luciferase reporter activity, robust Z-score vs plate median (robust Z-score (log luminescence)); higher = stronger NF-kB reporter activation
Settings: TNF treatment time 8.5 h, transfection time 72 h
Method: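 Primary screen of an Ambion Pre-miR miRNA mimic library (miRBase v8.0, 1.6 pmol/well, 384-well, duplicate) reverse-transfected into HEK293 cells stably expressing a 5x NF-kB firefly luciferase reporter. After 72 h the cells were treated with vehicle or TNF (40 ng/mL) for 8.5 h and luminescence was read (BriteLite). Raw luminescence was log-transformed and converted to a robust Z-score per plate: (x - plate median)/plate MAD. Sequence given is the mature miRNA strand of the double-stranded mimic.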

Row | Sequence | NF-kB luciferase reporter activity (TNF 0 ng/mL) | NF-kB luciferase reporter activity (TNF 40 ng/mL)
1 | CAUCUUACCGGACAGUGCUGGA | -1.28 ± 0.79 | -0.895 ± 0.12
2 | GAAGUUGUUCGUGGUGGAUUCG | -0.0557 ± 0.33 | -0.602 ± 0.087
3 | CAACGGAAUCCCAAAAGCAGCU | 0.539 ± 0.19 | 1.2 ± 0.21
4 | UCGGGGAUCAUCAUGUCACGAG | 1.13 ± 0.071 | 0.339 ± 0.01
5 | UAGGUAGUUUCCUGUUGUUGG | -1.2 ± 0.5 | -0.972 ± 0.18
6 | UAUACAAGGGCAAGCUCUCUGU | -1.38 ± 0.64 | -1.11 ± 0.035
7 | UUAUAAUACAACCUGAUAAGUG | -0.295 ± 1.1 | -0.534 ± 0.029
8 | UCUUGGAGUAGGUCAUUGGGUGG | 1.37 ± 0.57 | 0.913 ± 0.027
9 | UCUGGCUCCGUGUCUUCACUCC | 0.957 ± 0.014 | -1.34 ± 0.046
10 | CUGACCUAUGAAUUGACAGCC | -0.152 ± 0.091 | -0.0202 ± 0.12
11 | UGAUUGUAGCCUUUUGGAGUAGA | -1.51 ± 0.46 | -0.927 ± 0.034
12 | CAUCCCUUGCAUGGUGGAGGGU | 0.67 ± 0.24 | 0.53 ± 0.0024
13 | AAAGUGCAUCUUUUUAGAGGAU | -0.977 ± 0.6 | -0.416 ± 0.079
14 | AGAGGUAGUAGGUUGCAUAGU | -0.2 ± 0.023 | -1.24 ± 0.038
15 | AACGCGCUUCCCUAUAGAGGG | -0.412 ± 0.44 | 0.629 ± 0.15
16 | AAUCCUUUGUCCCUGGGUGAGA | 0.375 ± 0.22 | 0.638 ± 0.062
17 | UUCCCUUUGUCAUCCUUCGCCU | 0.84 ± 0.23 | 0.327 ± 0.09
18 | UGCUUCCUUUCAGAGGGU | 1.34 ± 0.039 | 0.941 ± 0.075
19 | AUCGUGCAUCCCUUUAGAGUGUU | 4.42 ± 0.37 | 0.437 ± 0.046
20 | UUGUACAUGGUAGGCUUUCAUU | 0.596 ± 0.28 | 0.433 ± 0.025
21 | AUUACAUGGCCAAUCUC | 0.0633 ± 0.4 | 0.754 ± 0.24
22 | UUCACAGGGAGGUGUCAUUUAU | 0.436 ± 0.13 | 0.0761 ± 0.082
23 | GUGCCUACUGAGCUGAUAUCAGU | -0.791 ± 0.86 | 0.339 ± 0.13
24 | CUCCUGACUCCAGGUCCUGUGU | 1.44 ± 0.61 | 1.21 ± 0.14

Row | Sequence | NF-kB luciferase reporter activity (TNF 0 ng/mL) | NF-kB luciferase reporter activity (TNF 40 ng/mL)
25 | CAGUGCAAUGAUGAAAGGGCAU | 1.21 ± 0.24 | 1.237 ± 0.0041
26 | UGUUUGCAGAGGAAACUGAGAC | 1.44 ± 0.076 | -1.26 ± 0.051
27 | UUAUCAGAAUCUCCAGGGGUAC | -0.469 ± 0.36 | -0.796 ± 0.17
28 | UCAGUGCAUGACAGAACUUGGG | -0.378 ± 0.05 | 0.0929 ± 0.021
29 | UGUGACAGAUUGAUAACUGAAA | -0.287 ± 0.28 | -2.016 ± 0.016
30 | ACAUAGAGGAAAUUCCACGUUU | 0.113 ± 0.85 | -0.459 ± 0.0079
31 | AAAGCGCUUCCCUUUGCUGGA | -0.603 ± 0.07 | 0.608 ± 0.072
32 | UAAGGCACCCUUCUGAGUAGA | -1.29 ± 0.15 | -3.27 ± 0.24
33 | CUGGACUUGGAGUCAGAAGGCC | -1.02 ± 0.24 | -0.191 ± 0.11
34 | UAUGUAAUAUGGUCCACAUCUU | -1.06 ± 0.48 | -1.342 ± 0.0044
35 | UCCAGCAUCAGUGAUUUUGUUGA | 0.425 ± 0.23 | 0.858 ± 0.14
36 | UGGUUUACCGUCCCACAUACAU | -0.822 ± 0.38 | 0.367 ± 0.064
37 | CUCUAGAGGGAAGCACUUUCU | 0.466 ± 0.17 | 0.664 ± 0.074
38 | AGUGACAUCACAUAUACGGCAGC | -1.06 ± 0.48 | -2.733 ± 0.0029
39 | UCCUGUACUGAGCUGCCCCGAG | 0.874 ± 0.074 | 1.15 ± 0.17
40 | AAUCAUACACGGUUGACCUAUU | 0 | -0.0786 ± 0.0065
41 | AAUAUAACACAGAUGGCCUGU | 0.148 ± 0.35 | 0.874 ± 0.29
42 | ACAAAGUGCUUCCCUUUAGAGUGU | -0.845 ± 0.78 | -0.799 ± 0.018
43 | UCUCCCAACCCUUGUACCAGUG | 0.0398 ± 0.056 | 1.18 ± 0.046
44 | AACUGGCCUACAAAGUCCCAG | 0.721 ± 0.19 | -1.18 ± 0.17
45 | CUGGCCCUCUCUGCCCUUCCGU | 0.704 ± 0.42 | -0.112 ± 0.19
46 | CUUUUUGCGGUCUGGGCUUGC | 0.334 ± 0.36 | -0.65 ± 0.076
47 | AAAGUGCAUCCUUUUAGAGUGUUAC | -1.8 ± 0.56 | -0.116 ± 0.027
48 | UCCCUGUCCUCCAGGAGCUCA | 0.322 ± 0.46 | 0.69 ± 0.39

Row | Sequence | NF-kB luciferase reporter activity (TNF 0 ng/mL) | NF-kB luciferase reporter activity (TNF 40 ng/mL)
49 | GAAGUGCUUCGAUUUUGGGGUGU | -1.7 ± 0.2 | -0.363 ± 0.1
50 | GUGCCGCCAUCUUUUGAGUGU | 0.919 ± 0.46 | -1.45 ± 0.12
51 | UCACAGUGAACCGGUCUCUUUC | -1.06 ± 0.48 | 0.0486 ± 0.083
52 | AGCUCGGUCUGAGGCCCCUCAG | 1.38 ± 0.13 | -1.1 ± 0.24
53 | GUGUGUGGAAAUGCUUCUGC | 0.447 ± 0.27 | -1.04 ± 0.03
54 | CAGCAGCACACUGUGGUUUGU | 0.765 ± 0.17 | 0.0663 ± 0.052
55 | CUGGACUUAGGGUCAGAAGGCC | 0.0764 ± 0.11 | 0.411 ± 0.022
56 | UACAGUAUAGAUGAUGUACUAG | 0.343 ± 0.35 | 0.659 ± 0.17
57 | AAACAAACAUGGUGCACUUCUUU | -1.38 ± 0.64 | -0.235 ± 0.099
58 | ACUUCACCUGGUCCACUAGCCGU | 0.123 ± 0.3 | 0.86 ± 0.097
59 | UGAAACAUACACGGGAAACCUCUU | 0.49 ± 0.56 | -0.403 ± 0.11
60 | GCACAUUACACGGUCGACCUCU | -0.263 ± 0.11 | 1.28 ± 0.042
61 | UAAACGUGGAUGUACUUGCUUU | -0.000139 ± 0.48 | 0.83 ± 0.16
62 | UGAUUGGUACGUCUGUGGGUAGA | -0.152 ± 0.091 | -0.9703 ± 0.0044
63 | CCCAGAUAAUGGCACUCUCAA | -0.57 ± 0.39 | -0.306 ± 0.12
64 | CCCAGUGUUUAGACUAUCUGUUC | -0.547 ± 0.91 | -0.613 ± 0.27
65 | ACUCAAAAUGGGGGCGCUUUCC | -0.706 ± 0.31 | 0.907 ± 0.14
66 | UCUACAAAGGGAAGCCCUUUCUG | -0.631 ± 0.31 | 0.879 ± 0.11
67 | AUCCUUGCUAUCUGGGUGCUA | -0.588 ± 0.71 | 0.413 ± 0.069
68 | AACGCACUUCCCUUUAGAGUGU | 0.317 ± 0.45 | 0.826 ± 0.073
69 | GGAGAAAUUAUCCUUGGUGUGU | 0.189 ± 0.13 | 0.256 ± 0.16
70 | AAACCGUUACCAUUACUGAGUUU | 1.13 ± 0.58 | 0.947 ± 0.054
71 | GAAGGCGCUUCCCUUUGGAGU | -0.702 ± 0.69 | -0.567 ± 0.046
